“And” between values parts separate entries of the source, which are not always exact repeats. Equal values may be shown once. “Also recorded” adds a separate entry of the source. Read-outs that look alike come from different tables or passages of the source.
Tests used:
hNav1.7 [1] = target: T1, hNav1.7 (Homo sapiens, UniProt Q15858); experiment: cell-based; assay type: cell-based
hNav1.3 [2] = target: T2, hNav1.3 (Homo sapiens, UniProt Q9NY46); assay type: cell-based
[3] = tested on: TTX-resistant Nav channels in mouse DRG neuron; assay type: cell-based
[4] = tested on: TTX-sensitive Nav channels in mouse DRG neuron; assay type: cell-based
hNav1.5 [5] = target: T3, hNav1.5 (Homo sapiens, UniProt Q14524); experiment: cell-based; assay type: cell-based
T3 sequence (Q14524 whole entry): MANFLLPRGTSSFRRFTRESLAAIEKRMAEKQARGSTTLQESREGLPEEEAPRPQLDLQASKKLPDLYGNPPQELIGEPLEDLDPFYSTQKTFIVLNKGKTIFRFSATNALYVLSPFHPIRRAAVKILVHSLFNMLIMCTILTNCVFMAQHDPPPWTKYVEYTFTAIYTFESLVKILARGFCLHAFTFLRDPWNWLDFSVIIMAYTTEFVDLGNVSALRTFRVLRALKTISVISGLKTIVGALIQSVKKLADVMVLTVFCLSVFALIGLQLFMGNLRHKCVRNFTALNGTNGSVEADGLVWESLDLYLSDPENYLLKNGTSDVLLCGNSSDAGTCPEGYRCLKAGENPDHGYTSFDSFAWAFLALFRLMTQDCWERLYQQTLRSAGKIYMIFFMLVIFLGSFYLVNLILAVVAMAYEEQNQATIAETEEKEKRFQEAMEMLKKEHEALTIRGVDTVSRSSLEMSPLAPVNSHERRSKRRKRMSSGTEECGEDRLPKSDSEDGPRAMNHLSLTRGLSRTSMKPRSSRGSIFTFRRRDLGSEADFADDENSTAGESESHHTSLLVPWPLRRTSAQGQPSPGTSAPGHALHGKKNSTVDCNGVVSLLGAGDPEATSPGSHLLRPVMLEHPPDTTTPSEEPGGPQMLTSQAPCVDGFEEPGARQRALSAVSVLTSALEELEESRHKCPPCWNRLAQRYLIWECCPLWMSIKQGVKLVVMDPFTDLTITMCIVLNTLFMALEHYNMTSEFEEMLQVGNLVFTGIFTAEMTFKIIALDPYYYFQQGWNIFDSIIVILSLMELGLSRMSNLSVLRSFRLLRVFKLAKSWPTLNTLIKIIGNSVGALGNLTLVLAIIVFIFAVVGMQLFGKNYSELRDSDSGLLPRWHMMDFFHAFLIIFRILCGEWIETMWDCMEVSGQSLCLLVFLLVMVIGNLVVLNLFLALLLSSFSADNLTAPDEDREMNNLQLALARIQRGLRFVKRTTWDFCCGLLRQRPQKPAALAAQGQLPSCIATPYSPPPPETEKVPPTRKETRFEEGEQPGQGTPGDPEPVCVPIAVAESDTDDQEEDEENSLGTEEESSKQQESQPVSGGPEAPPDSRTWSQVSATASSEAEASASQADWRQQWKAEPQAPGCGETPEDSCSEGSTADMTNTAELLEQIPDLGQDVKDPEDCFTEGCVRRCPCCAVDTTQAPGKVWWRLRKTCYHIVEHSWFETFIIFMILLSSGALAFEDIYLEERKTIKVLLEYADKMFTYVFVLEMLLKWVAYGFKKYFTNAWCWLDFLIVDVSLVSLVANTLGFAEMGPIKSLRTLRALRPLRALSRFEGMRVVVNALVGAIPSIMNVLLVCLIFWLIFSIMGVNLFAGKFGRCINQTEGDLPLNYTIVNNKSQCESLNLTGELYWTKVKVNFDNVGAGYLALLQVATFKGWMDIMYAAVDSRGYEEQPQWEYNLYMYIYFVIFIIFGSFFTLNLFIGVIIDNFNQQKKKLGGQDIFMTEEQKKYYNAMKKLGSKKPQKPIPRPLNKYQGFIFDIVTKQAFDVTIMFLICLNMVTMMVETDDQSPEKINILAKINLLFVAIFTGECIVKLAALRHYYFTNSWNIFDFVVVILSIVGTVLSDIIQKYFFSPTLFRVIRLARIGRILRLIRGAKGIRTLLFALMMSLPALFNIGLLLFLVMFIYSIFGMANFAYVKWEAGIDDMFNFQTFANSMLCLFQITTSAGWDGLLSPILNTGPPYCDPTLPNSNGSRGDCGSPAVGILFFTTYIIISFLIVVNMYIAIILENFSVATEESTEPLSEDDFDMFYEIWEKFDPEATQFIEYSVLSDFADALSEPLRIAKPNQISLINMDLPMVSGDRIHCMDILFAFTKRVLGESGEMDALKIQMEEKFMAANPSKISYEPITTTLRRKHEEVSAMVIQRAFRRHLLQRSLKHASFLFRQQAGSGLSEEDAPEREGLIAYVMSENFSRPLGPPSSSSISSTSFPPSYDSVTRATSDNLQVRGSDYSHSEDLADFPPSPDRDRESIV

hNav1.4 [6] = target: T4, hNav1.4 (Homo sapiens, UniProt P35499); assay type: cell-based
T4 sequence (P35499 whole entry): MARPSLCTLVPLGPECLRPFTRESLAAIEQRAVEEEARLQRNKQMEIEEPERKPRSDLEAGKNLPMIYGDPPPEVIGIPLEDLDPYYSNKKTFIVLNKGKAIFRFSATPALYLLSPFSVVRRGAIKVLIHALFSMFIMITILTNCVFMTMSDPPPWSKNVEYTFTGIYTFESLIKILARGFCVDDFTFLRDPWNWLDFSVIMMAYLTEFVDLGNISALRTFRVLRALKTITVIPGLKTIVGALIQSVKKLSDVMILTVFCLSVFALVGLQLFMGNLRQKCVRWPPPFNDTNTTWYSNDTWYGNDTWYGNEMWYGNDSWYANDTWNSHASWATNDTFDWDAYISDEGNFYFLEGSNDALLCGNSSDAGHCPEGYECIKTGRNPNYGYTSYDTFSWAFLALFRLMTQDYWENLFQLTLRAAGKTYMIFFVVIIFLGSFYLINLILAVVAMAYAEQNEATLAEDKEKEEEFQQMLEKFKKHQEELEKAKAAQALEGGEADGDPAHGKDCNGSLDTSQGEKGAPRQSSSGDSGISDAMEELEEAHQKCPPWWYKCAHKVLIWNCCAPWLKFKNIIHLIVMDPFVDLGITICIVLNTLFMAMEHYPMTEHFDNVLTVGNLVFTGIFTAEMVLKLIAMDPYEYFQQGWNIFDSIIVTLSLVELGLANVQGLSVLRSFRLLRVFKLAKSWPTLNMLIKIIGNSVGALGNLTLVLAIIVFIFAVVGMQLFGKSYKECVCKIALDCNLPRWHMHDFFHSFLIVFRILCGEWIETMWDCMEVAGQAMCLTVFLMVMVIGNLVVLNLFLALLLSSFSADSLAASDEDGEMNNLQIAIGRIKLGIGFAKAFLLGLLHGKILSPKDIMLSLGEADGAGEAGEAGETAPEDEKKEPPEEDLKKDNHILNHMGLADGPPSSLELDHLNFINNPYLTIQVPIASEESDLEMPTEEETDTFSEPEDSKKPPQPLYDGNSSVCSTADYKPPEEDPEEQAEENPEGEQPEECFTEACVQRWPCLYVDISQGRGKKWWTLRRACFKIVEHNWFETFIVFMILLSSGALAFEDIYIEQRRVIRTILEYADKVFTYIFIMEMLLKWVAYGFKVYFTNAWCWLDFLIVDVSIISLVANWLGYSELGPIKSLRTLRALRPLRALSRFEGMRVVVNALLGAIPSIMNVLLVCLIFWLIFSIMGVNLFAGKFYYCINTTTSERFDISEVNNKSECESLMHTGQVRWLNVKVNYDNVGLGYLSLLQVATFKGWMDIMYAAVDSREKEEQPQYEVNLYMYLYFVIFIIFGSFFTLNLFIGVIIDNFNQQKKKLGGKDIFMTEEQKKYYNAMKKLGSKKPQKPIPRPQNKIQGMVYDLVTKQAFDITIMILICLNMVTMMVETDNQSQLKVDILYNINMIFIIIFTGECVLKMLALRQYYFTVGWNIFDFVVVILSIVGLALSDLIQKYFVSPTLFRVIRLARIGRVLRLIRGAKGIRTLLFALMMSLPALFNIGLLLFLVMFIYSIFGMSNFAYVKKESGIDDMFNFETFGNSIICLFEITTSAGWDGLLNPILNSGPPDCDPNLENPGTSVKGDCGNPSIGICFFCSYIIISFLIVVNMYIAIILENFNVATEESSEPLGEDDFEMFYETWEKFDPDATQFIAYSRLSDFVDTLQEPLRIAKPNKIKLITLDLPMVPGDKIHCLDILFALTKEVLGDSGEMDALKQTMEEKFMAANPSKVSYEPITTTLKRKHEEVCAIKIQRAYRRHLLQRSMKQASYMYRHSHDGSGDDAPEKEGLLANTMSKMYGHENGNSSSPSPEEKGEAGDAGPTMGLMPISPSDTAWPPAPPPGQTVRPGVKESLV

hNav1.8 = hNav1.8 (Homo sapiens, UniProt Q9Y5Y9); experiment: cell-based; assay type: cell-based
hNav1.5 [7] = target: T3, hNav1.5; experiment: cell-based; settings: IonWorks Quattro; read-out: IC50 Nav1.5
in vitro [8] = settings: rat, plasma
hNav1.5 [9] = target: T3, hNav1.5; experiment: cell-based; settings: PatchXpress; * = at high concentrations compound would wash off slowly or not at all; read-out: PX hNav1.5 Tonic IC50
hNav1.3 [10] = target: T2, hNav1.3; experiment: cell-based; settings: IonWorks Quattro; read-out: IC50 Nav1.3
[11] = rat plasma, 37° C., incubation time 0 hr (normalisation point)
[12] = mouse plasma, 37° C., incubation time 0 hr (normalisation point)
hNav1.7 [13] = target: T1, hNav1.7; experiment: cell-based; assay type: cell-based; settings: PatchXpress; * = at high concentrations compound would wash off slowly or not at all; read-out: PX hNav1.7 Tonic IC50
hNav1.4 [14] = target: T4, hNav1.4; experiment: cell-based; settings: for IC50: IonWorks Quattro, read-out: IC50 Nav1.4
hNav1.7 [15] = target: T1, hNav1.7; experiment: cell-based; settings: IonWorks Quattro; read-out: IC50 Nav1.7
in vitro [16] = settings: mouse, plasma
hNav1.4 [17] = target: T4, hNav1.4; experiment: cell-based; settings: PatchXpress; * = at high concentrations compound would wash off slowly or not at all; read-out: PX hNav1.4 Tonic IC50
[18] = tested on: central neuronal sodium channels in rat hippocampus neurons; settings: cited from earlier work
[19] = in vivo; cited from earlier work
mice = settings: mouse, in vivo; cited from earlier work

Compound	IC50 (hNav1.5 [7])	remaining at 2 h (in vitro [8]) [%]	remaining at 4 h (in vitro [8]) [%]	remaining at 6 h (in vitro [8]) [%]	remaining at 8 h (in vitro [8]) [%]	remaining at 24 h (in vitro [8]) [%]	IC50 (hNav1.5 [9])	IC50 (hNav1.3 [10]) [µM]	% Peptide Remaining [11] [%]	% Peptide Remaining [12] [%]	IC50 (hNav1.7 [13])	IC50 (hNav1.4 [14]) [µM]	IC50 (hNav1.7 [15])	remaining at 2 h (in vitro [16]) [%]	remaining at 4 h (in vitro [16]) [%]	remaining at 6 h (in vitro [16]) [%]	remaining at 8 h (in vitro [16]) [%]	remaining at 24 h (in vitro [16]) [%]	IC50 (hNav1.4 [17])	other results
CC[C@H](C)[C@H](NC(=O)[C@@H](NC(=O)[C@H](CCCCN)NC(=O)[C@H](CCCNC(=N)N)NC(=O)[C@@H]1CSSC[C@@H]2NC(=O)[C@H](C)NC(=O)[C@H](CCCNC(=N)N)NC(=O)[C@H](CCCCN)NC(=O)[C@H](CO)NC(=O)[C@H](CC(=O)O)NC(=O)[C@@H]3CSSC[C@H](NC(=O)[C@H](CCCNC(=N)N)NC(=O)[C@H](CC(C)C)NC(=O)CNC(=O)[C@H](CCC(=O)O)NC(=O)[C@H](CSSC[C@H](NC(=O)[C@@H](N)Cc4ccc(O)cc4)C(=O)N[C@@H](CCC(N)=O)C(=O)N[C@@H](CCCCN)C(=O)N[C@@H](Cc4c[nH]c5ccccc45)C(=O)N[C@@H](CCSC)C(=O)N[C@@H](Cc4c[nH]c5ccccc45)C(=O)N[C@@H]([C@@H](C)O)C(=O)N3)NC2=O)C(=O)N[C@@H](CCCCN)C(=O)N[C@@H](CC(C)C)C(=O)N[C@@H](Cc2c[nH]c3ccccc23)C(=O)N1)[C@@H](C)CC)C(N)=O [SEQ ID NO: 2, JzTx-V(1-29), reference compound]	–	–	–	–	–	–	–	–	–	–	–	–	–	–	–	–	–	–	–	block of hNav1.7 current (hNav1.7 [1]): blocked all Nav1.7 current; inhibition of hNav1.7 current (hNav1.7 [1]): complete inhibition; block of hNav1.3 current (hNav1.3 [2]): completely blocked Nav1.3 current; also recorded: complete inhibition; effect on TTX-resistant Nav current [3]: nominal effect on peak TTX-resistant current but prolonged the level of TTX-resistant current at 40 msec; also recorded: only partial inhibition; block of TTX-sensitive Nav current [4]: completely blocked TTX-sensitive Nav current; also recorded: blocked nearly all TTX-sensitive Nav current; also recorded: almost complete inhibition; block of hNav1.5 current (hNav1.5 [5]): blocked most Nav1.5 current; also recorded: nearly complete inhibition; block of hNav1.4 current (hNav1.4 [6]): completely blocked Nav1.4 current; also recorded: complete inhibition; inhibition of hNav1.8 current (hNav1.8): only partial inhibition
CC[C@H](C)[C@H](NC(=O)[C@H](CCCCN)NC(=O)[C@H](CCCNC(=N)N)NC(=O)[C@@H]1CSSC[C@@H]2NC(=O)[C@H](C)NC(=O)[C@H](CCCNC(=N)N)NC(=O)[C@H](CCCCN)NC(=O)[C@H](CO)NC(=O)[C@H](CC(=O)O)NC(=O)[C@@H]3CSSC[C@H](NC(=O)[C@H](CCC(=O)O)NC(=O)[C@H](CC(C)C)NC(=O)CNC(=O)[C@H](CCC(=O)O)NC(=O)[C@H](CSSC[C@H](NC(=O)[C@@H](N)Cc4ccc(O)cc4)C(=O)N[C@@H](CCC(N)=O)C(=O)N[C@@H](CCCCN)C(=O)N[C@@H](Cc4c[nH]c5ccccc45)C(=O)N[C@@H](CCSC)C(=O)N[C@@H](Cc4c[nH]c5ccccc45)C(=O)N[C@@H]([C@@H](C)O)C(=O)N3)NC2=O)C(=O)N[C@@H](CCCCN)C(=O)N[C@@H](CC(C)C)C(=O)N[C@@H](Cc2c[nH]c3ccccc23)C(=O)N1)C(=O)N[C@@H](Cc1c[nH]c2ccccc12)C(N)=O [compound 112]	6.9 µM	95	93	92	89	70	3.42 µM and 3.95 µM and 4.41 µM and 1.32 µM and 1.62 µM	3.62	100	100	0.0028 µM and 0.00067 µM and 0.0013 µM and 0.0005 µM and 0.00141 µM and 0.00215 µM and 0.00182 µM and 0.00212 µM	> 5	0.03 µM and 0.017 µM	88	82	85	85	77	1.13 µM and 0.824 µM and 1.05 µM and 1.35 µM and 2.37 µM	IC50 (hNav1.7 [1]; WCPC, hNav1.7, partially inactivated, n=2): 0.00023 µM; 1.x/1.7, partially inactivated (hNav1.7 [1]; hNav1.7 vs hNav1.7, partially inactivated): 1; 1.x/1.7, partially inactivated [4]: 1213; 1.x/1.7, partially inactivated ([4]; mTTX-S (fresh DRG) vs hNav1.7, partially inactivated): 917
CC[C@H](C)[C@H](NC(=O)[C@H](CO)NC(=O)[C@H](CCCCN)NC(=O)[C@H](CCCNC(=N)N)NC(=O)[C@@H]1CSSC[C@@H]2NC(=O)[C@H](C)NC(=O)[C@H](CCCNC(=N)N)NC(=O)[C@H](CCCCN)NC(=O)[C@H](CO)NC(=O)[C@H](CC(=O)O)NC(=O)[C@@H]3CSSC[C@H](NC(=O)[C@H](CCC(=O)O)NC(=O)[C@H](CC(C)C)NC(=O)CNC(=O)[C@H](CCC(=O)O)NC(=O)[C@H](CSSC[C@H](NC(=O)[C@@H](N)Cc4ccc(O)cc4)C(=O)N[C@@H](CCC(N)=O)C(=O)N[C@@H](CCCCN)C(=O)N[C@@H](Cc4c[nH]c5ccccc45)C(=O)N[C@@H](CCSC)C(=O)N[C@@H](Cc4c[nH]c5ccccc45)C(=O)N[C@@H]([C@@H](C)O)C(=O)N3)NC2=O)C(=O)N[C@@H](CCCCN)C(=O)N[C@@H](CC(C)C)C(=O)N[C@@H](Cc2c[nH]c3ccccc23)C(=O)N1)C(N)=O [compound 138]	13.9 µM and 9.2 µM	90	81	71	67	59	> 10 µM and 14.6 µM	> 5	100	100	0.0033 µM and 0.002 µM and 0.0004 µM	> 5	0.08 µM and 0.15 µM	64	61	55	51	50	4.79 µM and 3.58 µM and 2.97 µM	Nav1.4/Nav1.7 (hNav1.4 [14]; ratio of IonWorks Quattro IC50 values): 62 and 34
Huwentoxin-IV [SEQ ID NO: 528]	–	–	–	–	–	–	–	–	–	–	–	–	–	–	–	–	–	–	–	less potent against central neuronal sodium channels [18]: 12 fold
YCQKWMWTCDSERKCCEGMVCRLWCKKKLW [SEQ ID NO: 531, ProTx-II]	–	–	–	–	–	–	–	–	–	–	–	–	–	–	–	–	–	–	–	efficacy in mechanical hyperalgesia study [19]: not efficacious
μ-Conotoxin KIIIA [SEQ ID NO: 530]	–	–	–	–	–	–	–	–	–	–	–	–	–	–	–	–	–	–	–	motor impairment (mice): some motor impairment but not paralytic activity

— patent US9636418B2 (priority 2013, dated 2017)
